Experimental data as given in publication PMC7125588 (Tetrahedron, 2011).

Columns and labels:
[1] = tested on: MDCK cell cultures; conditions: for Cytotoxicity MCC: dog
[2] = tested on: influenza A (H3N2); experiment: microbe, parasite or virus in culture; assay type: cell-based; conditions: H3N2, MDCK, read-out: Anti-influenza EC50 A (H3N2)
[3] = in vitro; conditions: dog
[4] = tested on: influenza B virus; experiment: microbe, parasite or virus in culture; assay type: cell-based; conditions: MDCK, read-out: Anti-influenza EC50 B
[5] = tested on: influenza A (H1N1); experiment: microbe, parasite or virus in culture; assay type: cell-based; conditions: H1N1, MDCK, read-out: Anti-influenza EC50 A (H1N1)
[6] = tested on: influenza virus A; experiment: Anti-influenza virus A activity as summarised in the text; assay type: cell-based; conditions: conclusions

## Nc1nc(P(=O)(O)O)nc(N)c1Cl [7a, 4,6-Diamino-5-chloropyrimidin-2-ylphosphonic acid]
[1]; Table 2
  Toxicity (in words): no toxicity
[1]
  Cytotoxicity MCC: >100 µM
[2]
  EC50: 28 ± 10 µM
[3]
  CC50: > 100 µM
[4]
  EC50: 72 ± 68 µM
[5]
  EC50: 50 ± 14 µM
[6]
  Anti-influenza virus A activity (in words): middle micromolar range

## NC12CC3CC(CC(C3)C1)C2 [Amantadine]
[1]
  Cytotoxicity MCC: >100 µM
[2]
  EC50: > 200 µM
[3]
  CC50: > 100 µM
[4]
  EC50: > 200 µM
[5]
  EC50: 36.8 ± 2.6 µM

## CCOC(=O)C1=C[C@@H](OC(CC)CC)[C@H](NC(C)=O)[C@@H](N)C1 [Oseltamivir]
[1]
  Cytotoxicity MCC: >100 µM
[2]
  EC50: […]
[3]
  CC50: > 100 µM
[4]
  EC50: 26 ± 27.7 µM
[5]
  EC50: […]

## NC(=O)c1ncn([C@@H]2O[C@H](CO)[C@@H](O)[C@H]2O)n1 [Ribavirin]
[1]
  Cytotoxicity MCC: >100 µM
[2]
  EC50: 8.7 ± 3.8 µM
[3]
  CC50: > 100 µM
[4]
  EC50: 5.6 ± 2.8 µM
[5]
  EC50: 9.2 ± 0.8 µM

## CC(N)C12CC3CC(CC(C3)C1)C2 (stereo not drawn) [Rimantadine]
[1]
  Cytotoxicity MCC: >100 µM
[2]
  EC50: > 500 µM
[3]
  CC50: > 100 µM
[4]
  EC50: > 500 µM
[5]
  EC50: 13.2 ± 0.2 µM
